Measurements taken from patent US20250049036A1 (priority 2021, published 2025).

Legend:
[1] = test system: Parastagonospora nodorum; experiment: Parastagonospora nodorum (PARANO) spore growth inhibition in liquid medium, 96-well microtiter plate, OD 600; format: cell-based; conditions: spore suspension in PDB liquid medium, 18° C., 5-6 days, OD at 600, read-out: control compared to the untreated check
Description: Potato dextrose (PDB) liquid medium (Difco) containing a PARANO (10^5 spores/ml) spore suspension was prepared. For the inhibition assay, each test compound was solved in dimethyl sulfoxide. 100 μl of the test compound in media-solution was added to a 96-well microtiter plate, consequently, the same volume (100 μl) of spore suspension was added to the well making the final test concentrations and the plate was incubated at 18° C. for 5-6 days. The growth inhibition was evaluated by measuring the OD at 600. Percent inhibition was calculated with the below formula: […]

[2] = test system: Colletotrichum capsici; experiment: Colletotrichum capsici (anthracnose) mycelial radial growth on potato dextrose agar; format: cell-based; conditions: Colletotrichum truncatum, 168 h, 25° C., seven days, read-out: control compared to the untreated check
Description: The compounds were dissolved in 0.3% dimethyl sulfoxide and then added to potato dextrose agar medium just prior to dispensing it into petri dishes. 5 mL medium, with the compound in the desired concentration, was dispensed into 60 mm sterile petri-plates. After solidification, each plate was seeded with a 5 mm size mycelial disc taken from the periphery of an actively growing virulent culture plate. The plates were incubated in growth chambers at 25° C. temperature and 60% relative humidity for seven days and the radial growth was measured and compared to the one of the untreated control.

[3] = test system: Phakopsora pachyrhizi; experiment: Phakopsora pachyrhizi test on soybean, preventive, greenhouse; format: in vivo; conditions: preventive spray on soybean, inoculated one day after treatment, read-out: control (efficacy, disease severity) compared to the untreated check
Description: The respective compound was dissolved in 2% dimethyl sulfoxide/acetone and then mixed with water containing emulsifier to the calibrated spray volume of 30 mL. Each spray solution was poured into a spray bottle for further application.
To test the preventive activity of a compound, healthy young soybean plants, raised in the greenhouse, were sprayed with the active compound preparation at the stated application rate inside the spray cabinets using hollow cone nozzles. One day after treatment, the plants were inoculated with a conidial suspension containing 2×10^5 Phakopsora pachyrhizi inoculum. The inoculated plants were then kept in a greenhouse chamber at 22-24° C. temperature and 80-90% relative humidity for disease expression.

[4] = test system: Pyricularia oryzae; experiment: microbe, parasite or virus in culture; format: cell-based; conditions: 168 h, read-out: control compared to the untreated check
[5] = test system: Botrytis cinerea; experiment: Botrytis cinerea test on tomato, preventive, greenhouse; format: in vivo; conditions: preventive spray on bean/chili plants (heading: tomato), inoculated one day after treatment, read-out: control (efficacy, disease severity) compared to the untreated check

| SMILES | inhibition of growth at 300 ppm [1] [%] | inhibition of growth at 300 ppm [2] [%] | pest or weed control at 500 ppm [3] [%] | inhibition of growth at 300 ppm [4] [%] | pest or weed control at 500 ppm [5] [%] |
| --- | --- | --- | --- | --- | --- |
| Cn1ccc2cc(C(=O)NC(C)(C)Cc3ccc(F)c(F)c3)cnc21 [Compound 23, N-(1-(3,4-difluorophenyl)-2-methylpropan-2-yl)-1-methyl-1H-pyrrolo[2,3-b]pyridine-5-carboxamide] | ≥ 70 | ≥ 70 | ≥ 70 | ≥ 70 |  |
| CC(Cc1ccccc1)(CC(F)(F)F)NC(=O)c1cnc2ccsc2c1 (stereo not shown) [Compound 25, N-(4,4,4-trifluoro-2-methyl-1-phenylbutan-2-yl)thieno[3,2-b] pyridine-6-carboxamide] | ≥ 70 | ≥ 70 | ≥ 70 | ≥ 70 |  |
| CC(C)CC(C)(Cc1ccccc1)NC(=O)c1cnc2ccsc2c1 (stereo not shown) [Compound 29, N-(2,4-dimethyl-1-phenylpentan-2-yl)thieno[3,2-b] pyridine-6-carboxamide] |  | ≥ 70 | ≥ 70 | ≥ 70 |  |
| Cc1nc2c(ccn2C)cc1C(=O)NC(C)(Cc1ccccc1)CC(C)C (stereo not shown) [Compound 34, N-(2,4-dimethyl-1-phenylpentan-2-yl)-1,6-dimethyl-1H-pyrrolo[2,3-b]pyridine-5-carboxamide] | ≥ 70 | ≥ 70 | ≥ 70 | ≥ 70 |  |
| Cc1nc2c(ccn2C)cc1C(=O)NC(C)(C)C(C)c1ccccc1F (stereo not shown) [Compound 35, N-(3-(2-fluorophenyl)-2-methylbutan-2-yl)-1,6-dimethyl-1H-pyrrolo[2,3-b]pyridine-5-carboxamide] |  |  | ≥ 70 |  | ≥ 70 |
| CC(C)CC(C)(Cc1ccccc1F)NC(=O)c1cnc2c(ccn2C)c1 (stereo not shown) [Compound 36, N-(1-(2-fluorophenyl)-2,4-dimethylpentan-2-yl)-1-methyl-1H-pyrrolo[2,3-b]pyridine-5-carboxamide] | ≥ 70 | ≥ 70 |  | ≥ 70 |  |
| CC(C)(Cc1ccccc1)NC(=O)c1cnc2c(c1)CCCC2 [Compound 45, N-(2-methyl-1-phenylpropan-2-yl)-5,6,7,8-tetrahydroquinoline-3-carboxamide] | ≥ 70 | ≥ 70 | ≥ 70 |  |  |
| Cn1cc(Br)c2cc(C(=O)NC(C)(C)Cc3ccccc3)cnc21 [Compound 46] |  |  | ≥ 70 | ≥ 70 | ≥ 70 |
| Cn1cc(C2CC2)c2cc(C(=O)NC(C)(C)Cc3ccccc3)cnc21 [Compound 54, 3-cyclopropyl-1-methyl-N-(2-methyl-1-phenylpropan-2-yl)-1H-pyrrolo[2,3-b] pyridine-5-carboxamide] |  |  | ≥ 70 |  | ≥ 70 |
| CN(C(=O)c1cnc2c(c1)c(Cl)cn2C)C(C)(C)Cc1ccccc1 [Compound 56, 3-chloro-N,1-dimethyl-N-(2-methyl-1-phenylpropan-2-yl)-1H-pyrrolo[2,3-b] pyridine-5-carboxamide] | ≥ 70 |  | ≥ 70 | ≥ 70 |  |
| CN(C(=O)c1cnc2c(c1)c(C1CC1)cn2C)C(C)(C)Cc1ccccc1 [Compound 57, 3-cyclopropyl-N,1-dimethyl-N-(2-methyl-1-phenylpropan-2-yl)-1H-pyrrolo[2,3-b] pyridine-5-carboxamide] |  |  | ≥ 70 |  | ≥ 70 |
| Cn1ccc2cc(C(=O)NC(C)(C)Cc3ccc(Br)cc3)cnc21 [Compound 61, N-(1-(4-bromophenyl)-2-methylpropan-2-yl)-1-methyl-1H-pyrrolo[2,3-b]pyridine-5-carboxamide] |  |  |  |  | ≥ 70 |
| CC(c1ccccc1F)C(C)(C)NC(=O)c1cnc2c(c1)c(C1CC1)cn2C (stereo not shown) [Compound 65, 3-cyclopropyl-N-(3-(2-fluorophenyl)-2-methylbutan-2-yl)-1-methyl-1H-pyrrolo[2,3-b]pyridine-5-carboxamide] |  |  | ≥ 70 | ≥ 70 |  |
| Cn1cc(F)c2cc(C(=O)NC(C)(C)Cc3ccc(Cl)cc3)cnc21 [Compound 66, N-(1-(4-chlorophenyl)-2-methylpropan-2-yl)-3-fluoro-1-methyl-1H-pyrrolo[2,3-b]pyridine-5-carboxamide] |  |  | ≥ 70 |  | ≥ 70 |
| Cn1ccc2cc(C(=O)NC(C)(C)Cc3ccc(F)cc3)cnc21 [Compound 74, N-(1-(4-fluorophenyl)-2-methylpropan-2-yl)-1-methyl-1H-pyrrolo[2,3-b]pyridine-5-carboxamide] |  |  |  |  | ≥ 70 |
| Cn1ccc2cc(C(=O)NC3Cc4ccccc4C3)cnc21 [Compound 76, N-(2,3-dihydro-1H-inden-2-yl)-1-methyl-1H-pyrrolo[2,3-b] pyridine-5-carboxamide] |  |  | ≥ 70 |  | ≥ 70 |
| Cn1cc(Br)c2cc(C(=O)NC(C)(C)Cc3ccccc3Cl)cnc21 [Compound 84, 3-bromo-N-(1-(2-chlorophenyl)-2-methylpropan-2-yl)-1-methyl-1H-pyrrolo[2,3-b]pyridine-5-carboxamide] |  |  | ≥ 70 |  | ≥ 70 |
| CSc1ccc(C(NC(=O)c2cnc3c(ccn3C)c2)C(C)C)cc1 (stereo not shown) [Compound 90] | ≥ 70 | ≥ 70 |  |  |  |
| Cc1nc2[nH]ccc2cc1C(=O)NC(C)(Cc1ccccc1)CC(C)C (stereo not shown) [Compound 96, N-(2,4-dimethyl-1-phenylpentan-2-yl)-6-methyl-1H-pyrrolo[2,3-b]pyridine-5-carboxamide] |  |  | ≥ 70 |  | ≥ 70 |
| Cc1nc2[nH]ccc2cc1C(=O)NC1(Cc2ccccc2)CC1 [Compound 97, N-(1-benzylcyclopropyl)-6-methyl-1H-pyrrolo[2,3-b]pyridine-5-carboxamide] |  |  | ≥ 70 |  | ≥ 70 |
| Cn1ccc2cc(C(=O)NC(C)(C)C(O)Cc3ccccc3)cnc21 (stereo not shown) [Compound 116, N-(3-hydroxy-2-methyl-4-phenylbutan-2-yl)-1-methyl-1H-pyrrolo[2,3-b]pyridine-5-carboxamide] |  | ≥ 70 |  |  |  |
| CCC(O)(CC)C(NC(=O)c1cnc2c(ccn2C)c1)c1ccccc1 (stereo not shown) [Compound 120, N-(2-ethyl-2-hydroxy-1-phenylbutyl)-1-methyl-1H-pyrrolo[2,3-b]pyridine-5-carboxamide] |  |  |  |  | ≥ 70 |
| C=C(C)CC(C)(COc1ccc(F)cc1)NC(=O)c1cnc2ccsc2c1 (stereo not shown) [Compound 122, N-(1-(4-fluorophenoxy)-2,4-dimethylpent-4-en-2-yl)thieno[3,2-b] pyridine-6-carboxamide] |  | ≥ 70 |  |  | ≥ 70 |
| COc1cc(C(=O)OCC(C)(C)NC(=O)c2cnc3ccsc3c2)ccc1F [Compound 124, 2-methyl-2-(thieno[3,2-b]pyridine-6-carboxamido)propyl 4-fluoro-3-methoxybenzoate] | ≥ 70 |  |  | ≥ 70 | ≥ 70 |
| Cc1ccc(F)cc1C(O)C(C)(C)NC(=O)c1cnc2ccsc2c1 (stereo not shown) [Compound 133, N-(1-(5-fluoro-2-methylphenyl)-1-hydroxy-2-methylpropan-2-yl)thieno[3,2-b] pyridine-6-carboxamide] |  |  | ≥ 70 | ≥ 70 |  |
| C[C@H](NC(=O)c1cnc2c(ccn2C)c1)C(O)(c1cc(Cl)cc(Cl)c1)c1cc(Cl)cc(Cl)c1 [Compound 141] |  |  | ≥ 70 | ≥ 70 |  |
| CC(C)(COC(=O)c1ccccc1C(F)(F)F)NC(=O)c1cnc2c(c1)CCCC2 [Compound 150, 2-methyl-2-(5,6,7,8-tetrahydroquinoline-3-carboxamido)propyl 2-(trifluoromethyl)benzoate] | ≥ 70 |  | ≥ 70 |  | ≥ 70 |
| C=C(C)CC(C)(Cc1ccc(F)cc1)NC(=O)c1cnc2c(ccn2C)c1 (stereo not shown) [Compound 181, N-(1-(4-fluorophenyl)-2,4-dimethylpent-4-en-2-yl)-1-methyl-1H-pyrrolo[2,3-b]pyridine-5-carboxamide] | ≥ 70 | ≥ 70 |  |  |  |
| CC(C)CC(C)(Cc1ccccc1)NC(=O)c1cc2c(nc1Cl)CCC2 (stereo not shown) [Compound 211, 2-chloro-N-(2,4-dimethyl-1-phenylpentan-2-yl)-6,7-dihydro-5H-cyclopenta[b]pyridine-3-carboxamide] | ≥ 70 | ≥ 70 |  |  |  |
